Results reported in paper PMC7505949, “Structure-Guided Designing and Evaluation of Peptides Targeting Bacterial Transcription” (Frontiers in Bioengineering and Biotechnology, 2020).
Peptide text beside a SMILES is read from it.

Experiments:
[1] = Storage stability in water by LC-MS; assay type: physicochemical; details: stored for over a year at 4°C, LC-MS (C18), observed vs calculated molecular weight
Description: The stability of all the designed peptides was analyzed using Liquid chromatography-mass spectrometry (LC-MS) using Agilent Technologies (model G6550A). […] Peptide 3 was injected in the C18 column equilibrated in a positive mode at a flow rate of 0.5 mL/min using water as a mobile phase.
As the interaction interface between RNAP β1β2 domain and the transcription factor (CarD^NTD and TRCF-RID) ([Westblade et al., 2010]; [Gulten and Sacchettini, 2013]) is relatively large, flat, solvent-exposed, and devoid of the binding pocket, it is challenging to design small molecule-based inhibitors. We therefore aimed to design the peptide-based RNAP β/transcription factor inhibitors by selecting the key residues involved in the interaction at the conserved PPI interface between RNAP β and transcription factor complex. The sequence and molecular weight of the designed peptides are mentioned in Table 1. PEP-FOLD3.1 ([Lamiable et al., 2016]), an online server, was used to predict the de novo structures of the designed peptides by running 100 simulations for each peptide. PEP-FOLD3.1 provides the information in the form of models which are generated by OPEP (Optimized Potential for Efficient structure Prediction) energy. […] The peptides were analyzed for their stability and solubility. […]

[2] = Solubility in water and aqueous buffer; assay type: physicochemical
Excerpt: As the interaction interface between RNAP β1β2 domain and the transcription factor (CarD^NTD and TRCF-RID) ([Westblade et al., 2010]; [Gulten and Sacchettini, 2013]) is relatively large, flat, solvent-exposed, and devoid of the binding pocket, it is challenging to design small molecule-based inhibitors. We therefore aimed to design the peptide-based RNAP β/transcription factor inhibitors by selecting the key residues involved in the interaction at the conserved PPI interface between RNAP β and transcription factor complex. The sequence and molecular weight of the designed peptides are mentioned in Table 1. PEP-FOLD3.1 ([Lamiable et al., 2016]), an online server, was used to predict the de novo structures of the designed peptides by running 100 simulations for each peptide. PEP-FOLD3.1 provides the information in the form of models which are generated by OPEP (Optimized Potential for Efficient structure Prediction) energy. The topmost model with the lowest OPEP score having minimum energy and maximum stability for each peptide was selected for further computational analysis. The designed peptides were 7–8 amino acids in length and were commercially synthesized. The peptides were analyzed for their stability and solubility. All the peptides were soluble in water as well as in aqueous buffer with a solubility of > 10 mM.

SMILES: CC[C@H](C)[C@H](NC(=O)[C@H](CCC(=O)O)NC(=O)CNC(=O)[C@@H](N)[C@@H](C)O)C(=O)N[C@@H](CCCCN)C(=O)N[C@@H](CO)C(=O)N[C@@H](CCC(N)=O)C(=O)N[C@H](C(=O)O)[C@@H](C)O [Peptide 2] (H-TGEIKSQT-OH)
- Stability on storage [1]: highly stable
- Solubility (in words) [2]: soluble in aqueous buffer
